Assay results taken from ChEMBL document CHEMBL1126213, “Synthesis and biological activity of a 5,6-substituted teleocidin” (Bioorg Med Chem Lett, 1992).

Biological target: Protein kinase C, PKC; classical/novel
Assay: Binding to PKC in 3[H]-[…] assay
Type: protein assay

## CC(C)[C@@H]1Nc2c3c(cc4[nH]cc(c24)C[C@@H](CO)NC1=O)C(C)(C)CCC3(C)C
  IC50: 0.4 µM
